Laboratory results taken from patent US5124334A, “Benzylalcohol phospholipase A2 inhibitors” (Du Pont Merck Pharmaceutical Company, priority 1989, dated 1992).
Counter-ions that a name gives are not always drawn.

System: inflammation induced by tetradecanoyl phorbol acetate (TPA)
Assay: TPA inflammation inhibition test (TPA-induced mouse ear edema)
Format: in vivo, mice
Conditions: test compound 100 mg/ear applied topically, edema measured four hours later
Source text: One such model is the inflammation induced by tetradecanoyl phorbol acetate (TPA), modified from the method of Kuehl et al., Nature, 1977, 265, 170; and Van Arman, Clin. Pharmacol. Ther., 1974, 16, 900. The TPA model mimics many of the inflammatory change which occur in human skin diseases such as psoriasis, since elevated levels of inflammatory arachidonic acid metabolites are found and an influx of polymorphonuclear leukocytes is observed. The test procedure used to evaluate the compounds of Formula (I) is as follows: the test compound (100 mg/ear) is applied to both ears of mice in an appropriate vehicle, such as acetone, and then the inflammatory stimulus (TPA) is applied to the right ear. Four hours later, the edema is measured by removing standard size discs from the ears using a biopsy punch. A control group of animals receives TPA in vehicle applied to the right ear, and vehicle alone to the left ear. The weights of the ear discs are determined, and the suppression of swelling observed in animals treated with the test compound is determined.

Compound	% Inhibition of Control Swelling [%]
CC(C)c1ccc2c(c1)CCC1C(C)(CNCCC(O)c3ccc(F)cc3)CCCC21C (stereo not drawn) [Example 1, α-(2-[1,4a-Dimethyl-7-(2-propyl)-1,2,3,4,4a,9,10,10a-octahydro-1-phenanthren-1-yl]methylamino)ethyl)-4-fluorobenzenemethanol Hydrochloride]	46
CC(C)c1ccc2c(c1)CCC1C(C)(CNCCCC(O)c3ccc(F)cc3)CCCC21C.Cl (stereo not drawn) [Example 2, α-(3-([1,4a-Dimethyl-1,2,3,4,4a,9,10,10a-octahydro-7-(2-propyl)-1-phenanthrenyl]methylamino)propyl)-4-fluorobenzenemethanol Hydrochloride]	57
COc1ccc(C(O)CCNCC2(C)CCCC3(C)c4ccc(C(C)C)cc4CCC23)cc1.Cl (stereo not drawn) [Example 12, α-(2-([1,4a-Dimethyl-1,2,3,4,4a,9,10,10a-octahydro-7-(2-propyl)-1-phenanthrenyl]methylamino)-ethyl)-4-methoxybenzenemethanol Hydrochloride]	27
